Reference: patent publication US20040029208A1, “Assay method and kit for testing biological material for exposure to stress using biomarkers” (priority 2000, published 2004)

Assays:
white birch seedlings = details: within 24h of application, even at 1% of field rate; cited from earlier work
Papaver rhoeas [1] = assay: Visual effect rating (0-9) after Roundup Bio; type: in vivo
Description: (§1) Four, eight, sixteen and thirty two days after spraying, visual effects on plants were noted before harvest, using the rating chart described in Hamil. et al. (1977) and Boutin et al. (1993); a rating of zero indicates full growth and vigour, and a rating of nine indicates no growth/mortality.
(§2) The study was performed in greenhouse between August and December 1998 for all species. Degree days (=(Present temperature in ° C.-5° C.)×amount of days) were used as time scale. The plants were 226-378 degree days (30 days) old before exposure. The plants were exposed to 0, 1. 10 and 100% of the recommended field dose of Roundup Bio. Before the harvest, the plants were evaluated for visual effects using the rating chart described in Table 1 (Hamit et al., 1977). A rating of zero indicates full growth and vigour (compared with control plants) and a rating of nine, no growth/mortality. The plants were all harvested 180 degree days (14 days) after exposure. The plants were lyophilizied and k pt dry and in dark before phytochemical analysis.
(§3) Table 2: Sensitivity of plants exposed to glyphosate (Roundup Bio), based on presence of phytochemical changes in all the TLC-Systems at lowest dose of concentration (LC) of the herbicide in percent of field dose. The corresponding visual effect (VE) Is presented (see table 1).

Mentha spicata [2] = assay: Visual effect rating (0-9) after Roundup Bio; type: in vivo
Description: as §1, §2, §3

Rudbeckia hirta [3] = assay: Visual effect rating (0-9) after Roundup Bio; type: in vivo
Description: as §1, §2, §3

Leonorus carica [4] = assay: Visual effect rating (0-9) after Roundup Bio; type: in vivo
Description: as §1, §2, §3

Nepeta cataria [5] = assay: Visual effect rating (0-9) after Roundup Bio; type: in vivo
Description: as §1, §2, §3

Sinapis avensis [6] = assay: Visual effect rating (0-9) after Roundup Bio; type: in vivo
Description: as §1, §2, §3

Bellis perennis [7] = assay: Visual effect rating (0-9) after Roundup Bio; type: in vivo
Description: as §1, §2, §3

Papaver rhoeas [8] = assay: TLC phytochemical changes after Roundup Bio (sensitivity); type: in vivo
Description: (§4) Glyphosate (Roundup Bio (360 g L1:) was supplied by Monsanto Denmark ANS. Recommended field dose =1,44 kg a.i. ha^−1. In all the experiments, an automatic sprayer (designed in Denmark by Jens Kristensen 1994) was used where the herbicide application is achieved by moving boom equipment with two ordinary hydraulic flat fan nozzles (Hardl 4110-16). Two pots per spray event were placed in the middle of the spray chamber at 50 cm distance from the nozzle, delivering 200 L of water per hectare with a desired herbicide concentration (working pressure 2 bars; speed of spray boom=4.7 km h^1). The spraying was performed starting with the lowest concentration first, progressing towards the highest concentration. Between each herbicide, the sprayer was thoroughly rinsed several times with water. The control plants were sprayed with water.
as §2
(§5) 250 mg lyophilized plant material was crushed and extracted with 5.00 ml 75% ethanol in water in ultrasonic bath for two hours. Ice was added to the bath every 30 minutes to keep the temperature constant during the extraction. The extracts wer transferred to vials and centrifuged (3000 g per min.) for 10 minut s. The extract was immediately used for phytochemical analysis.
(§6) Frozen or fresh plant material was pressed for plant sap using a hand press. The sap was transferred to vials and centrifuged (3000 g per min.) for 10 minutes. The extract was immediately used for phytochemical analysis.
(§7) Rf-values (defined as, Rf-value=Distance of spot centre from start point/Distance of solvent front from start point (Stahl, 1969)) were determined for all phytochemical compounds.
(§8) In table 2 the sensitivity of the different plant species to Roundup Bio is presented. The sensitivity of the plant species was evaluated on basis of the presence of the most frequent pattern, the lowest concentration of exposure, and the visual effect of the exposed plants. In table 2, the plant species are divided into three groups: Group I: Very sensitive plant species; Group II: Medium sensitive plant species, and Group III: Less sensitive plant species. In Group I, a phytochemical pattern was present in plants exposed to 1% of the recommended field dose of Roundup Bio with a visual effect from 0 to 4. In Group II, a phytochemical pattern was found in plants exposed to 1 to 10% of the recommended field dose of the herbicide with a visual effect from 0 to 5. Finally, Group III presents plant species containing a phytochemical pattern after exposure of 10% of the recommended field dose with a visual effect from 5 to 7.
as §3

Mentha spicata [9] = assay: as above; type: in vivo
Description: as §4, §2, §5, §6, §7, §8, §3

Rudbeckia hirta [10] = assay: as above; type: in vivo
Description: as §4, §2, §5, §6, §7, §8, §3

Leonorus carica [11] = assay: as above; type: in vivo
Description: as §4, §2, §5, §6, §7, §8, §3

Rumex crispus = assay: as above; type: in vivo
Description: as §4, §2, §5, §6, §7, §8, §3

Nepeta cataria [12] = assay: as above; type: in vivo
Description: as §4, §2, §5, §6, §7, §8, §3

Fallopia convolvulus = assay: as above; type: in vivo
Description: as §4, §2, §5, §6, §7, §8, §3

Sinapis avensis [13] = assay: as above; type: in vivo
Description: as §4, §2, §5, §6, §7, §8, §3

Bellis perennis [14] = assay: as above; type: in vivo
Description: as §4, §2, §5, §6, §7, §8, §3

O=C(O)CNCP(=O)(O)O [Glyphosate]
increase of shikimic acid levels (white birch seedlings): 10 fold | VE: corresponding visual effect (Papaver rhoeas [1]): 4 | VE: corresponding visual effect (Mentha spicata [2]): 6 | VE: corresponding visual effect (Rudbeckia hirta [3]): 1 | VE: corresponding visual effect (Leonorus carica [4]): 5 | VE: corresponding visual effect (Nepeta cataria [5]): 7 | VE: corresponding visual effect (Sinapis avensis [6]): 7 | VE: corresponding visual effect (Bellis perennis [7]): 7 | LC: lowest dose of concentration of the herbicide with phytochemical changes in all the TLC-Systems (Papaver rhoeas [8]): 1% of field dose | LC: lowest dose of concentration of the herbicide with phytochemical changes in all the TLC-Systems (Mentha spicata [9]): 10% of field dose | LC: lowest dose of concentration of the herbicide with phytochemical changes in all the TLC-Systems (Rudbeckia hirta [10]): 1% of field dose | LC: lowest dose of concentration of the herbicide with phytochemical changes in all the TLC-Systems (Leonorus carica [11]): 10% of field dose | LC: lowest dose of concentration of the herbicide with phytochemical changes in all the TLC-Systems (Rumex crispus): 1% of field dose | LC: lowest dose of concentration of the herbicide with phytochemical changes in all the TLC-Systems (Nepeta cataria [12]): 10% of field dose | LC: lowest dose of concentration of the herbicide with phytochemical changes in all the TLC-Systems (Fallopia convolvulus): 1% of field dose | LC: lowest dose of concentration of the herbicide with phytochemical changes in all the TLC-Systems (Sinapis avensis [13]): 10% of field dose | LC: lowest dose of concentration of the herbicide with phytochemical changes in all the TLC-Systems (Bellis perennis [14]): 10% of field dose
